Values of other authors as cited in patent US6764831B2, “Methods and compositions for pain management” (priority 1998, dated 2004).

Assays:
[1] = injected into the brachial artery of humans
cholinesterase (ChE) = settings: muscle relaxants used with anesthesia
[2] = system: ACh level in the extracellular space; settings: injection into rats

| Structure (SMILES) | effect on cholinesterase (ChE) (cholinesterase (ChE)) | also measured |
| --- | --- | --- |
| CC(=O)OCC[N+](C)(C)C [ACh, acetylcholine] | – | pain produced on injection [1]: extreme pain was produced |
| COc1ccc(C[C@@H]2c3cc(OC)c(OC)cc3CC[N@+]2(C)CCC(=O)OCCCCCOC(=O)CC[N@@+]2(C)CCc3cc(OC)c(OC)cc3[C@H]2Cc2ccc(OC)c(OC)c2)cc1OC [NIMBEX] | no effect | – |
| CC(=O)O[C@H]1C[C@@H]2CC[C@@H]3[C@H](CC[C@@]4(C)[C@H]3C[C@H]([N+]3(C)CCCCC3)[C@@H]4OC(C)=O)[C@@]2(C)C[C@@H]1N1CCCCC1.[Br-] [NOCURON] | no effect | – |
| C=CC[N+]1([C@H]2C[C@H]3[C@@H]4CC[C@H]5C[C@H](O)[C@@H](N6CCOCC6)C[C@]5(C)[C@H]4CC[C@]3(C)[C@H]2OC(C)=O)CCCC1 [ROCURONIUM] | no effect | – |
| C[N+](C)(C)CCOC(=O)CCC(=O)OCC[N+](C)(C)C [Succinylcholine] | no effect | – |
| CCCCCCCNC(=O)Oc1ccc2c(c1)[C@]1(C)CCN(C)[C@@H]1N2C [heptylphysostigmine] | – | ACh level in the extracellular space [2]: elevation |
| CN(C)C(=O)Oc1cccc([N+](C)(C)C)c1 [neostigmine] | – | cholinesterase inhibition (cholinesterase): inhibit; extracellular ACh level (extracellular ACh level): above detection limit |
